Test results as given in patent US7867979B2, “Drug composition for treating 2 type diabetes and diabetic chronicity complications” (Hainan Deze Drug Research Co., Ltd., priority 2006, dated 2011).

Experiments:
Format in all cases: in vivo, Goto-Kakizaki rats (GK)
diabetic GK rats = assay: Blood glucose and lipid in GK rats; settings: oral daily 12 weeks; for GLU / Lipid TC / Lipid TG: GK rats, high fat diet
From the text: The GK (Goto-Kakizaki) rat is the spontaneous model of diabetes, the pathogenesis of GK rat is very similar to the pathogenesis of type 2 diabetes. After diabetes attack, hyperglycemia and insulin secretion weakened emerge rapidly, the latter diseases may be complicated by retinopathy, micro-vascular disease, neuropathy, nephropathy in GK rat. The GK rats have been widely used in type 2 diabetes study, so we choose GK rat as the animal model of the following experiment. […] Then they can be mixed or diluted in accordance with the dose and the ratio. 1.3 Goto-Kakizaki rats (GK) (4 months age, ♀♂) and Wistar rats (SPF level, ♀♂) were purchased from Shanghai SLAC laboratory animal Co., Ltd. In addition to the normal rats, the other rats were fed with high fat diet (20% protein and 3.5% cholesterol). After the rats was feeding adaptation for one week, The GK rats which the blood glucose level was more than 11.1 mmol/L were selected, and then divided into the following groups random: GK rats control group (n=10); mangiferin groups (10, 30, 200 mg/kg, each group 10 rats); berberine groups (10, 20, 150 mg/kg, each group 10 rats); composition group 1[[mangiferin (10 mg/kg)+berberine (10 mg/kg)], 10 rats]; composition group 2[[mangiferin (200 mg/kg)+berberine (150 mg/kg)], 10 rats]. Wistar rats are normal control group (10 rats). GK rats control group and Wistar rats group were given saline. The other groups were given test drugs. Test samples were administrated orally at the same time every day for 12 weeks. 3.1 Blood Glucose and lipid: The blood specimens were taken at the end of the test. Plasma glucose (GLU), triglycerides (TG), total cholesterol (TC) were determined by HITACHI7080 automatic biochemistry analyzer. […] The results have been calculated as mean±SD ( x±SD) and the comparisons of the data have been done by t-test. […] Mangiferin and berberine are prepared in accordance with the method of preparation of example 1 and 2. Then they can be mixed in accordance with the dose and the ratio such as table 3. 1.2 Animal: Goto-Kakizaki rats (GK) (4 months age, ♀♂) and Wistar rats (SPF level, ♀♂) were purchased from Shanghai SLAC laboratory animal Co., Ltd. In addition to the normal rats, the other rats were fed with high fat diet (20% protein and 3.5% cholesterol). After the rats was feeding adaptation for one week, GK rats that the blood glucose level of the GK rats was more than 11.1 mmol/L were selected, and then random divided into the following groups as follows (Table 3): There are ten rats in every group. GK rats control group and wistar rats group were given saline. The other groups were given test drugs. Test samples were administrated orally at the same time every day for 12 weeks. The measurements are as same as the above experiment.

aldose reductase (AR) = target: T1, aldose reductase (AR) (Rattus norvegicus, UniProt P07943); assay: Activity of aldose reductase (AR) of lens in GK rats; settings: oral daily 12 weeks, specific activity, in U/mg protein; for AR activity of lens NADH (0.1 mmol/L): NADH 0.1 mmol/L system; for AR activity of lens NADPH (0.1 mmol/L): NADPH 0.1 mmol/L system
T1 construct: from tissue; host or cells: lens of GK (Goto-Kakizaki) and Wistar rats
Procedure: GK rats control group (n=10); mangiferin groups (10, 30, 200 mg/kg, each group 10 rats); berberine groups (10, 20, 150 mg/kg, each group 10 rats); composition group 1[[mangiferin (10 mg/kg)+berberine (10 mg/kg)], 10 rats]; composition group 2[[mangiferin (200 mg/kg)+berberine (150 mg/kg)], 10 rats]. Wistar rats are normal control group (10 rats). GK rats control group and Wistar rats group were given saline. The other groups were given test drugs. Test samples were administrated orally at the same time every day for 12 weeks. […] At the End of the experiment, the left side lens of rats was taken, then these lenses were added into glycerol and put into refrigerator (−80° C.□) to preserve to determine AR activity. The determination method of AR activity refer to Maragoudakis's method and change slightly, that is: the activity of enzyme is indicated by the record of the absorbance of NADPH in 340 nm decline IOU. […] The second reaction system is 0.1 mmol/L NADH instead of NADPH, the rest of the reagent is same as one of the first response system. The activity of enzyme and the protein content in tissue homogenate are determined at the same time. a unit enzyme activity is indicated by the quantity of the enzyme that produce 1 μmol NADP^+ (or NDA^+) in one minute. […] The results have been calculated as mean±SD ( x±SD) and the comparisons of the data have been done by t-test. There are ten rats in every group. GK rats control group and wistar rats group were given saline. The other groups were given test drugs. Test samples were administrated orally at the same time every day for 12 weeks. The measurements are as same as the above experiment.

[1] = tested on: Superoxidedismutase (SOD); assay: Superoxidedismutase (SOD) in kidney tissue homogenate of GK rats; settings: oral daily 12 weeks
Procedure: GK rats control group (n=10); mangiferin groups (10, 30, 200 mg/kg, each group 10 rats); berberine groups (10, 20, 150 mg/kg, each group 10 rats); composition group 1[[mangiferin (10 mg/kg)+berberine (10 mg/kg)], 10 rats]; composition group 2[[mangiferin (200 mg/kg)+berberine (150 mg/kg)], 10 rats]. Wistar rats are normal control group (10 rats). GK rats control group and Wistar rats group were given saline. The other groups were given test drugs. Test samples were administrated orally at the same time every day for 12 weeks. 3.3.1 Preparation of tissue homogenate: Rats were killed by femoral artery bloodletting after administration of the rats for 12-weeks. Kidney tissue of the rats were taken, the blood of kidney tissue were washed with cooling saline (4° C.), then the remnant water was absorbed with filter paper, the kidney tissue was weighed. Per gram kidney tissue was added into 10 ml saline, which was put in homogenized machine (10,000 r/min, 10 seconds, 3rd), 10% tissue homogenate was prepared, the tissue homogenate was centrifuged (4000 r/min) for 10 minutes to get supernatant, the supernatant was saved in −20° C. for determination. […] SOD is determined by Xanthine Oxidase calorimetric analysis, the test box was bought from Nanjing Jiancheng Bioengineering Research Institute. […] The results have been calculated as mean±SD ( x±SD) and the comparisons of the data have been done by t-test. There are ten rats in every group. GK rats control group and wistar rats group were given saline. The other groups were given test drugs. Test samples were administrated orally at the same time every day for 12 weeks. The measurements are as same as the above experiment.

[2] = 30 mg/kg mangiferin, 20 mg/kg berberine

O=c1c2cc(O)c(O)cc2oc2cc(O)c([C@@H]3O[C@H](CO)[C@@H](O)[C@H](O)[C@H]3O)c(O)c12 [Mangiferin]
Improvement of GLU, TC, TG, AR, MDA, SOD in diabetic GK rats (diabetic GK rats; 10 mg/kg): do not significantly improve | Improvement of GLU, TC, TG, AR, MDA, SOD in diabetic GK rats (diabetic GK rats; [2]): improves | GLU (diabetic GK rats; 10 mg/kg): 20.75 ± 3.39 mmol/L | Lipid TC (diabetic GK rats; 10 mg/kg): 4.48 ± 1.53 mmol/L | Lipid TG (diabetic GK rats; 10 mg/kg): 3.62 ± 0.41 mmol/L | GLU (diabetic GK rats; 30 mg/kg): 13.05 ± 2.23 mmol/L | Lipid TC (diabetic GK rats; 30 mg/kg): 3.16 ± 0.32 mmol/L | Lipid TG (diabetic GK rats; 30 mg/kg): 2.82 ± 0.22 mmol/L | GLU (diabetic GK rats; 200 mg/kg): 9.05 ± 2.04 mmol/L | Lipid TC (diabetic GK rats; 200 mg/kg): 3.06 ± 0.29 mmol/L | Lipid TG (diabetic GK rats; 200 mg/kg): 1.82 ± 0.32 mmol/L | AR activity of lens NADH (0.1 mmol/L) (aldose reductase (AR); 10 mg/kg): 2.89 ± 0.69 | AR activity of lens NADPH (0.1 mmol/L) (aldose reductase (AR); 10 mg/kg): 5.36 ± 2.17 | AR activity of lens NADH (0.1 mmol/L) (aldose reductase (AR); 30 mg/kg): 1.64 ± 0.42 | AR activity of lens NADPH (0.1 mmol/L) (aldose reductase (AR); 30 mg/kg): 3.05 ± 0.59 | AR activity of lens NADH (0.1 mmol/L) (aldose reductase (AR); 200 mg/kg): 0.94 ± 0.45 | AR activity of lens NADPH (0.1 mmol/L) (aldose reductase (AR); 200 mg/kg): 1.87 ± 0.51 | Measurements about oxidation SOD ([1]; 10 mg/kg): 130.74 ± 23.47 U/mg pro | Measurements about oxidation SOD ([1]; 30 mg/kg): 168.23 ± 13.46 U/mg pro | Measurements about oxidation SOD ([1]; 200 mg/kg): 194.15 ± 13.55 U/mg pro

COc1ccc2cc3[n+](cc2c1OC)CCc1cc2c(cc1-3)OCO2 [Berberine]
Improvement of GLU, TC, TG, AR, MDA, SOD in diabetic GK rats (diabetic GK rats; 10 mg/kg): do not significantly improve | Improvement of GLU, TC, TG, AR, MDA, SOD in diabetic GK rats (diabetic GK rats; [2]): improves | GLU (diabetic GK rats; 10 mg/kg): 21.24 ± 3.13 mmol/L | Lipid TC (diabetic GK rats; 10 mg/kg): 4.53 ± 1.28 mmol/L | Lipid TG (diabetic GK rats; 10 mg/kg): 3.49 ± 0.68 mmol/L | GLU (diabetic GK rats; 20 mg/kg): 12.29 ± 2.76 mmol/L | Lipid TC (diabetic GK rats; 20 mg/kg): 3.27 ± 0.24 mmol/L | Lipid TG (diabetic GK rats; 20 mg/kg): 2.79 ± 0.24 mmol/L | GLU (diabetic GK rats; 150 mg/kg): 9.11 ± 2.08 mmol/L | Lipid TC (diabetic GK rats; 150 mg/kg): 3.01 ± 0.28 mmol/L | Lipid TG (diabetic GK rats; 150 mg/kg): 1.80 ± 0.19 mmol/L | AR activity of lens NADH (0.1 mmol/L) (aldose reductase (AR); 10 mg/kg): 2.98 ± 0.60 | AR activity of lens NADPH (0.1 mmol/L) (aldose reductase (AR); 10 mg/kg): 5.64 ± 2.19 | AR activity of lens NADH (0.1 mmol/L) (aldose reductase (AR); 20 mg/kg): 1.32 ± 0.37 | AR activity of lens NADPH (0.1 mmol/L) (aldose reductase (AR); 20 mg/kg): 2.28 ± 0.51 | AR activity of lens NADH (0.1 mmol/L) (aldose reductase (AR); 150 mg/kg): 0.94 ± 0.45 | AR activity of lens NADPH (0.1 mmol/L) (aldose reductase (AR); 150 mg/kg): 1.87 ± 0.51 | Measurements about oxidation SOD ([1]; 10 mg/kg): 131.56 ± 23.49 U/mg pro | Measurements about oxidation SOD ([1]; 20 mg/kg): 170.04 ± 13.49 U/mg pro | Measurements about oxidation SOD ([1]; 150 mg/kg): 195.10 ± 13.71 U/mg pro
